Source: article PMC3577862, “A Multiple Reaction Monitoring (MRM) Method to Detect Bcr-Abl Kinase Activity in CML Using a Peptide Biosensor” (PLoS ONE, 2013)

Tests used:
[1] = test system: chronic myelogenous leukemia (CML) patients; conditions: CML patients on imatinib; cited from earlier work
Excerpt: [1] […] Approximately 90% of CML patients achieve initial remission with ...

Bcr-Abl [2] = target: T1, Bcr-Abl (Homo sapiens, UniProt P00519+P11274); assay: Cell-based biosensor assay, MRM (LC-MS/MS) detection of biosensor phosphorylation; conditions: for phosphorylated peptide detected by MRM (in words): biosensor 5 min, alone or with imatinib or pervanadate; for phosphorylated peptide detected by MRM (in words) / phosphopeptide, 580-480 transition / unphosphorylated peptide, 540-604 transition / phosphopeptide, 580-604 transition / unphosphorylated peptide, 540-767 transition: 1 µg lysate; for phosphopeptide, 580-480 transition / unphosphorylated peptide, 540-604 transition / phosphopeptide, 580-604 transition / unphosphorylated peptide, 540-767 transition / %phospho: K562, 5 min; for phosphopeptide, 580-604 transition / unphosphorylated peptide, 540-767 transition: transition not chosen for quantitation; for %phospho: from fmol of 580-480 and 540-604
Bcr-Abl [3] = target: T1, Bcr-Abl; assay: Cell-based biosensor assay, Western blot detection (4G10 antiphosphotyrosine / streptavidin); set-up: applied here to the disease-relevant, patient-derived CML model cell line K562; BCR N-terminal portion (fusion partner, human BCR P11274); endogenous in cells; host or cells: K562 (human CML cell line); conditions: 25 µM peptide alone, + 10 µM imatinib (1 h pre-incubation) or + 1 µM pervanadate; 5, 30, 60 min; N = 3
Experimental: Samples of equal protein content (100 µg/lane) were diluted into Laemmli buffer and subjected to SDS-PAGE. Proteins were transferred to nitrocellulose membrane and analyzed by Western blotting. Membranes were split at the 15 kD mark and blocked in 3% milk in TBS-T overnight at 4°C, followed by blotting with the indicated antibodies in 3% milk/TBS-T. The bottom membrane was blotted with: DyLight-649 labeled Streptavidin (1∶1000, ThermoFisher Pierce) to detect total biosensor; 4G10 α-phosphotyrosine antibody to detect the phosphorylated biosensor. […] Signals of immunoblots were visualized using the Odyssey system (LiCOR Biosciences, Lincoln, NE), quantified using densitometry with Quantity One (Bio-Rad), and analyzed with GraphPad Prism software.
We based the peptide biosensor assay for Bcr-Abl/Abl kinase activity on our previously reported methodology, [17], [18] applied here to the disease-relevant, patient-derived CML model cell line K562. […] Lysates were processed as described in the Experimental Procedures, separated by SDS-PAGE and analyzed by Western blot using a two-color LiCOR scanner for quantitative detection of IR-dye labeled secondary antibodies and streptavidin (to measure total peptide signal via the biotinylated residue).

[4] = biological replicate 1, P, P+G, P+V treatments
[5] = biological replicate 2, P, P+G, P+V treatments
[6] = biological replicate 3, P, P+G, P+V treatments

T1 sequence (P11274+P00519 fused): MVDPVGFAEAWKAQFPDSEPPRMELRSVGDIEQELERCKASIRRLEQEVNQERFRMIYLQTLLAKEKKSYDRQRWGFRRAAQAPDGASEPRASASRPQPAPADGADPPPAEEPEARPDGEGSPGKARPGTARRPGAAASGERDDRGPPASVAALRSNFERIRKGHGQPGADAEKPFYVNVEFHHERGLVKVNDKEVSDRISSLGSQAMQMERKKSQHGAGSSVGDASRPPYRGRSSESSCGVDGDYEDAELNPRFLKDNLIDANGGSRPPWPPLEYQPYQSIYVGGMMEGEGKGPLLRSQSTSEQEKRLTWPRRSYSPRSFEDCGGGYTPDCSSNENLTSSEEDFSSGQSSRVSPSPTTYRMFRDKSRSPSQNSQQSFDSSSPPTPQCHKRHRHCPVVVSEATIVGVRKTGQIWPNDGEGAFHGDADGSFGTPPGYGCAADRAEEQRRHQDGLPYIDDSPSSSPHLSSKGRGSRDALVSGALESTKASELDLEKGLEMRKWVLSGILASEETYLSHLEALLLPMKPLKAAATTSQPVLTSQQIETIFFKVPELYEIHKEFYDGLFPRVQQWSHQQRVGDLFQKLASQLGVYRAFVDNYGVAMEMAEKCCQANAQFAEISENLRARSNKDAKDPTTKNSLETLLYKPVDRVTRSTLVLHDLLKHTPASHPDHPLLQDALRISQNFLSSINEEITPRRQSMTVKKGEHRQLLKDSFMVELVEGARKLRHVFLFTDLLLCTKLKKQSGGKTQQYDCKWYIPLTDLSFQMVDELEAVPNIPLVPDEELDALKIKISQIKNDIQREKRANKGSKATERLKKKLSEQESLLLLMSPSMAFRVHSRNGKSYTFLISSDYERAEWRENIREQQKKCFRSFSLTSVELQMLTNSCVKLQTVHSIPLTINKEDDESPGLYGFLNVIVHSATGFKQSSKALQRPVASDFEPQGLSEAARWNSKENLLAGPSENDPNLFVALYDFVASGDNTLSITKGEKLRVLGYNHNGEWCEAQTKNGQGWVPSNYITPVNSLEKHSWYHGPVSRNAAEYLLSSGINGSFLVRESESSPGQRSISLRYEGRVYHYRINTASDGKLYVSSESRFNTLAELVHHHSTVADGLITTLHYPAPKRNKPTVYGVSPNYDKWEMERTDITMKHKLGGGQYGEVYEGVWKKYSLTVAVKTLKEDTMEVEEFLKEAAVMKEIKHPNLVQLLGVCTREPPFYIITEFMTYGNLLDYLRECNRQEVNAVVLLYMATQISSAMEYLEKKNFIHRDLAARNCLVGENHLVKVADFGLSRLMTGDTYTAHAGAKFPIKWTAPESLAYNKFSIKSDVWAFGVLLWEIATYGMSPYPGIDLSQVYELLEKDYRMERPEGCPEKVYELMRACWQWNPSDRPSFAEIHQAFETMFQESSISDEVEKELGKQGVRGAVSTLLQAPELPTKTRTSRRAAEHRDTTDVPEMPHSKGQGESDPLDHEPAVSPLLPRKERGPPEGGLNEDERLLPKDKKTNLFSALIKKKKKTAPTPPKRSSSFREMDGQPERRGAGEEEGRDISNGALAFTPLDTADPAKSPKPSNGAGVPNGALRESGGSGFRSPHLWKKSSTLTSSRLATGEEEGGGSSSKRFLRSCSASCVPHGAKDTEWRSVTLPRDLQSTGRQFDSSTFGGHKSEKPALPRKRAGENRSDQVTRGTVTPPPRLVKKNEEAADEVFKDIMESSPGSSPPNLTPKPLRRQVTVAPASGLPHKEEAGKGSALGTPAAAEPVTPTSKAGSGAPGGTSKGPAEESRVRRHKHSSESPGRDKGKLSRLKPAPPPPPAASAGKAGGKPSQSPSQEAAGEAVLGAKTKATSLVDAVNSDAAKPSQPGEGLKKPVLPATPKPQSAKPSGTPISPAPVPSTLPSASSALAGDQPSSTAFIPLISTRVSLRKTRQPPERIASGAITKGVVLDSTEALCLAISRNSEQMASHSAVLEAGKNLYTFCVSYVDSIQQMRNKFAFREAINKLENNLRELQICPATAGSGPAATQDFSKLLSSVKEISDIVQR
Experimental for K562 cells: Biosensor peptide from samples generated as described above (in the Cell-based biosensor assay section) was captured using streptavidin-coated MagneSpheres (Promega Corporation, Madison, WI). The beads (20 µl) were prepared by washing with 0.1% Octyl-β-glucoside/PBS (3×150 µl). K562 cell lysates (200 µg total protein) were incubated with the beads on a shaker (600 rpm, 60 min). Beads were captured using a MagnaBot 96-well magnetic capture device (Promega) and washed with 0.1% Octyl-β-glucoside/PBS (3×150 µl) and deionized water (3×150 µl). Peptide was eluted using 15 µL sample buffer (ACN/H2O/TFA, 50%/50%/0.1%). 0.5 µL from each sample was co-spotted with α-cyano-4-hydroxycinnamic acid (10% w/v) containing ammonium dihydrogen phosphate (5 mg/ml), [22] dried and analyzed on a 4800 MALDI-TOF/TOF Analyzer (ABSciex). Selected ions were analyzed by MS/MS (specifying the parent ion mass for selection and CID) and sequenced de novo.
Peptide in lysates was enriched using streptavidin-coated magnetic nanoparticles through the peptide’s biotinylated reporter segment.

For `Cc1ccc(NC(=O)c2ccc(CN3CCN(C)CC3)cc2)cc1Nc1nccc(-c2cccnc2)n1` [imatinib], the “CML patients achieving initial remission with imatinib” value [1] is given as “Approximately 90%”, the “patients who never respond or develop recurrent and/or resistant disease (relapse within a few years; 1–5 years of starting treatment)” value [1] is given as “approximately 30%” and the “patients whose remission remains stable for a long period of time” value [1] is given as about 70%.

For “EAIYAAPFAKKK(γ-biotin)G-βNpa-GCGGAPTYSPPPPPGGRKKRRQRRRLL [Peptide]”, the “Total (fmol), Peptide only” value (Bcr-Abl [2]; K562 cells, 25 µM peptide alone, 5 min, unphosphorylated plus phosphorylated, per µg of digested lysate, MRM, mean ±SD of three replicate biological experiments) was 28 ± 5 fmol, the “phosphorylated peptide detected by MRM (in words)” value (Bcr-Abl [2]; K562 cells) was “both unphosphorylated and phosphorylated peptides were detected” and the “site of degradation of the biosensor in cells” value (K562 cells) was “C-terminal degradation”. The “phosphorylation of the biosensor peptide in K562 cells (Western blot, 4G10)” value (Bcr-Abl [3]) was “phosphorylated”.

For pervanadate, the “Unphospho (fmol), Peptide+pervanadate” value (Bcr-Abl [2]; K562 cells, 25 µM peptide + 1 µM pervanadate, 5 min, 540→604, per µg of digested lysate, mean ±SD of three replicates) was 14 ± 0.6 fmol, the “Phospho (fmol), Peptide+pervanadate” value (Bcr-Abl [2]; K562 cells, 25 µM peptide + 1 µM pervanadate, 5 min, 580→480, per µg of digested lysate, mean ±SD of three replicates) was 17 ± 12 fmol and the “% phospho, Peptide+pervanadate” value (Bcr-Abl [2]; K562 cells, 25 µM peptide + 1 µM pervanadate, 5 min, MRM, mean ±SD of three replicates) was 52±16%. For the same compound, the “Total (fmol), Peptide+pervanadate” value (Bcr-Abl [2]; K562 cells, 25 µM peptide + 1 µM pervanadate, 5 min, unphosphorylated plus phosphorylated, per µg of digested lysate, mean ±SD of three replicates) was 31 ± 13 fmol, the “phosphorylated peptide detected by MRM (in words)” value (Bcr-Abl [2]; K562 cells) was “higher levels” and the “phosphopeptide, 580-480 transition” value (Bcr-Abl [2]; biological replicate 1, P = peptide alone, P+G = + imatinib, P+V = + pervanadate, corrected AUC x 1/slope) was 31.582 fmol. The “unphosphorylated peptide, 540-604 transition” value (Bcr-Abl [2]; [4]) was 14.1586 fmol, the “phosphopeptide, 580-604 transition” value (Bcr-Abl [2]; [4]) was 42.5934 fmol and the “unphosphorylated peptide, 540-767 transition” value (Bcr-Abl [2]; [4]) was 15.6618 fmol. For the same compound, the “%phospho” value (Bcr-Abl [2]; [4]) was 69.0458%, the “phosphopeptide, 580-480 transition” value (Bcr-Abl [2]; [5]) was 10.229 fmol and the “unphosphorylated peptide, 540-604 transition” value (Bcr-Abl [2]; [5]) was 12.9195 fmol. The “phosphopeptide, 580-604 transition” value (Bcr-Abl [2]; [5]) was 16.5395 fmol, the “unphosphorylated peptide, 540-767 transition” value (Bcr-Abl [2]; [5]) was 12.6668 fmol and the “%phospho” value (Bcr-Abl [2]; [5]) was 44.1886%. For the same compound, the “phosphopeptide, 580-480 transition” value (Bcr-Abl [2]; [6]) was 10.3517 fmol, the “unphosphorylated peptide, 540-604 transition” value (Bcr-Abl [2]; [6]) was 13.5084 fmol and the “phosphopeptide, 580-604 transition” value (Bcr-Abl [2]; [6]) was 16.6663 fmol. For the same compound, the “unphosphorylated peptide, 540-767 transition” value (Bcr-Abl [2]; [6]) was 11.085 fmol, the “%phospho” value (Bcr-Abl [2]; [6]) was 43.385% and the “phosphorylation of the biosensor peptide in K562 cells (Western blot, 4G10)” value (Bcr-Abl [3]) was “stabilized”.
